Here are results for two compounds from ChEMBL document CHEMBL5154644, “Design, Synthesis, and Structure-Activity Relationship Optimization of Pyrazolopyrimidine Amide Inhibitors of Phosphoinositide 3-Kinase γ (PI3Kγ)” (J Med Chem, 2022).

pIC50, pKi: −log10 of the molar value. Activity calls are given as the source filed them. Where only a bound is given, the exact number is not on record here.

Data set [1] is described as follows: MRT (infinity) in C57BL/6 mouse at 0.5 mg/kg, iv. Type of data set: ADME, organism-based. To be noted: in vivo.
Data set [2] deals with T1, Phosphatidylinositol 4,5-bisphosphate 3-kinase catalytic subunit gamma isoform (Homo sapiens, UniProt P48736). The data set is described as follows: Inhibition of PI3Kgamma (unknown origin) using PIP2 as substrate preincubated for 1 hr followed by substrate addition and measured after 60 mins in presence of ATP by ADP-glo assay. On the technique in general: In ADP-Glo the light output rises with the ADP produced.
Target sequence in this assay (P48736 whole entry, canonical isoform): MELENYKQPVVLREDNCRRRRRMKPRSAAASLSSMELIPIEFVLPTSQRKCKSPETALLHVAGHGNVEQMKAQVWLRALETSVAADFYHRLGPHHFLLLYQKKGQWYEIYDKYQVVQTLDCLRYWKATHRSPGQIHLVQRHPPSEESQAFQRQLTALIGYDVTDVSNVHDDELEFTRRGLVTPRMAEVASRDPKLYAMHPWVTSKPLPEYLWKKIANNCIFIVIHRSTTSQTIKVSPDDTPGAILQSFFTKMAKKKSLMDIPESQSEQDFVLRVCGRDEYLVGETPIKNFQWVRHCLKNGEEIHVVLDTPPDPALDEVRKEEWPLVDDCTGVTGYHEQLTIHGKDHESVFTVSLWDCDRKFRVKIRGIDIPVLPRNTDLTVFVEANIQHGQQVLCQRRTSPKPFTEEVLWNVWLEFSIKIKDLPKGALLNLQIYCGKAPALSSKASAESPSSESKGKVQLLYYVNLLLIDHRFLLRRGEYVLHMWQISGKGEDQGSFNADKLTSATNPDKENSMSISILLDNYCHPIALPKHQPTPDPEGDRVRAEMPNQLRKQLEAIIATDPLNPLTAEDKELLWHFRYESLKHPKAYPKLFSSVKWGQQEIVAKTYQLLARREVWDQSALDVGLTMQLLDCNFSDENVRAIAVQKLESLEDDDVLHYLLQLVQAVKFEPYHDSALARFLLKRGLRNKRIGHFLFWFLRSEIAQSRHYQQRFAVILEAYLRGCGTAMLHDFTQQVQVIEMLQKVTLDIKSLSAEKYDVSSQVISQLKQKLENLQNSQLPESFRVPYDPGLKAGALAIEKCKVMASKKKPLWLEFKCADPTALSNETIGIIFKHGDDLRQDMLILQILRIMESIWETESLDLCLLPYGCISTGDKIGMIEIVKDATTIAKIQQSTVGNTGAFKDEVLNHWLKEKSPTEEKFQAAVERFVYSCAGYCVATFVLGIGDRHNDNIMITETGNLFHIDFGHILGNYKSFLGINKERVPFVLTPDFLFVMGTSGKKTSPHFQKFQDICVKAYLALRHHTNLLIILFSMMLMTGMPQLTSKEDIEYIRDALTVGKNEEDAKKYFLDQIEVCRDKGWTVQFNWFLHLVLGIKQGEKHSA

Data set [3] has as its target T1, Phosphatidylinositol 4,5-bisphosphate 3-kinase catalytic subunit gamma isoform. The data set is described as follows: Inhibition of PI3Kgamma in SDF-1alpha stimulated human whole blood assessed as reduction in phospho-AKT kinase activity preincubated for 1 hr followed by SDF-1alpha stimulation and measured after 2 mins by flow cytometric analysis. Type of data set: tissue-based. For orientation: Flow cytometry measures light scatter and fluorescence of single cells or particles in a stream.
Target sequence in this assay (P48736 whole entry, canonical isoform): as above

In data set [4] the target is Phosphatidylinositol 4,5-bisphosphate 3-kinase catalytic subunit alpha isoform (Homo sapiens, UniProt P42336). The data set is described as follows: Inhibition of PI3Kalpha (unknown origin) using PIP2 as substrate preincubated for 1 hr followed by substrate addition and measured after 60 mins in presence of ATP by ADP-glo assay.
Phosphatidylinositol 4,5-bisphosphate 3-kinase catalytic subunit alpha isoform, sequence (P42336 whole entry, canonical isoform): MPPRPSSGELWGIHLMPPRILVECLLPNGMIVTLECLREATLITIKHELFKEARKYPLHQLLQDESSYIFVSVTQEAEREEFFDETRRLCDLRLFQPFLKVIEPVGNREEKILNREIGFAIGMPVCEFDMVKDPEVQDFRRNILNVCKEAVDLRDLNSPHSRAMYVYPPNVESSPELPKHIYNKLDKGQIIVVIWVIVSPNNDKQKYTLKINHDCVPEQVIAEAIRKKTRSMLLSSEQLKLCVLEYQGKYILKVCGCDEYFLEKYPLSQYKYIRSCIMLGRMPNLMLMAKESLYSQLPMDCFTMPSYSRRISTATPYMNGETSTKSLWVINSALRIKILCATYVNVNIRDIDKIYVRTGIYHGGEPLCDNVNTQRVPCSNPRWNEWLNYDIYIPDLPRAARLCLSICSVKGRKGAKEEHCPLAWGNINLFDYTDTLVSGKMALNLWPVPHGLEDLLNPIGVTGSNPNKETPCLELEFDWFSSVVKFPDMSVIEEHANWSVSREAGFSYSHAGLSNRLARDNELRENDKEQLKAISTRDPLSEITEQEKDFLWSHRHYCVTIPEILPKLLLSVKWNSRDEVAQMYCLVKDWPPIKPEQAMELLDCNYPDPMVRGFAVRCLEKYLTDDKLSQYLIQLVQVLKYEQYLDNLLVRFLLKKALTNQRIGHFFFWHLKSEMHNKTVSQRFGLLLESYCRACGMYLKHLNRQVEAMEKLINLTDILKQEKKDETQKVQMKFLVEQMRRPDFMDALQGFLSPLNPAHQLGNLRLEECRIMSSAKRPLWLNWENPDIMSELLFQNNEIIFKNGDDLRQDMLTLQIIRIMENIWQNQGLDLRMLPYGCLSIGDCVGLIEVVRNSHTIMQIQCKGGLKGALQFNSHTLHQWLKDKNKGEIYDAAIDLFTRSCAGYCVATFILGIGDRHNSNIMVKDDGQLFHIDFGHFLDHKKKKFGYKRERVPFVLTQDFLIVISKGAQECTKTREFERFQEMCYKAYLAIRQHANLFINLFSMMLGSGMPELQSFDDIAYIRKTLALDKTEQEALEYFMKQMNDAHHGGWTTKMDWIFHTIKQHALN
Data set [5] in a line: Plasma protein binding in cynomolgus monkey at 1 mg/kg, iv. Type of data set: ADME, organism-based, Macaca fascicularis. As to conditions: read-out: PPB (converted).
Data set [6] is described as follows: Clearance in C57BL/6 mouse at 0.5 mg/kg, iv. The format is ADME, organism-based. As to conditions: in vivo.
Data set [7] can be described thus: Clearance in Beagle dog at 1 mg/kg, iv. The format is ADME, organism-based, Canis lupus familiaris. As to conditions: in vivo.
The nature of data set [8]: Clearance in cynomolgus monkey at 1 mg/kg, iv. Type of data set: ADME, organism-based, Macaca fascicularis. As to conditions: in vivo.
Data set [9] is described as follows: Volume of distribution at steady state in C57BL/6 mouse at 0.5 mg/kg, iv. To be noted: in vivo. The format is ADME, organism-based.
The nature of data set [10]: Volume of distribution at steady state in Beagle dog at 1 mg/kg, iv. Type of data set: ADME, organism-based, Canis lupus familiaris. As to conditions: in vivo.
The nature of data set [11]: Half life in C57BL/6 mouse at 0.5 mg/kg, iv. Type of data set: ADME, organism-based. To be noted: in vivo.
Data set [12] is described as follows: Half life in Sprague-Dawley rat at 1 mg/kg, iv measured up to 8 hrs by LC-MS/MS analysis. Type of data set: ADME, organism-based. To be noted: in vivo.
Data set [13] can be described thus: Half life in Beagle dog at 1 mg/kg, iv. Type of data set: ADME, organism-based, Canis lupus familiaris. As to conditions: in vivo.
A short description of data set [14]: MRT (infinity) in Sprague-Dawley rat at 1 mg/kg, iv measured up to 8 hrs by LC-MS/MS analysis. As to conditions: in vivo. Type of data set: ADME, organism-based.
The target in data set [15] is T1, Phosphatidylinositol 4,5-bisphosphate 3-kinase catalytic subunit gamma isoform. The data set is described as follows: Inhibition of P13Kgamma in LPS and IFNgamma stimulated human M1 macrophage assessed as increase in IL1B expression at 1 uM pretreated for 1 hr followed by LPS and IFNgamma stimulation by qRT-PCR analysis. The format is cell-based. (In general: Quantitative PCR measures a nucleic acid by following its amplification.)
Target sequence in this assay (P48736 whole entry, looked up, canonical isoform): as the sequence (P48736 whole entry, canonical isoform) above

For data set [16] the target is unchanged. The data set can be described thus: Inhibition of P13Kgamma in LPS and IFNgamma stimulated human M1 macrophage assessed as increase in IL6 expression at 1 uM pretreated for 1 hr followed by LPS and IFNgamma stimulation by qRT-PCR analysis. Type of data set: cell-based.
Target sequence in this assay (P48736 whole entry, looked up, canonical isoform): as the sequence (P48736 whole entry, canonical isoform) above
Data set [17] in a line: Metabolic stability in human hepatocytes assessed as parent compound remaining at 0.5 uM measured after 4 hrs by LC-MS/MS analysis. Type of data set: ADME, cell-based, Hepatocyte. As to conditions: read-out: Stability.
In data set [18] the target is T1, Phosphatidylinositol 4,5-bisphosphate 3-kinase catalytic subunit gamma isoform. The data set can be described thus: Inhibition of PI3Kgamma (unknown origin) at 10 uM using PIP2 as substrate preincubated for 60 mins followed by substrate addition and measured after 45 mins in presence of ATP by TR-FRET analysis.
Target sequence in this assay (P48736 whole entry, canonical isoform): as above
In data set [19] the target is T2, Cytochrome P450 2B6 (Homo sapiens, UniProt P20813).
T2 sequence (P20813 whole entry): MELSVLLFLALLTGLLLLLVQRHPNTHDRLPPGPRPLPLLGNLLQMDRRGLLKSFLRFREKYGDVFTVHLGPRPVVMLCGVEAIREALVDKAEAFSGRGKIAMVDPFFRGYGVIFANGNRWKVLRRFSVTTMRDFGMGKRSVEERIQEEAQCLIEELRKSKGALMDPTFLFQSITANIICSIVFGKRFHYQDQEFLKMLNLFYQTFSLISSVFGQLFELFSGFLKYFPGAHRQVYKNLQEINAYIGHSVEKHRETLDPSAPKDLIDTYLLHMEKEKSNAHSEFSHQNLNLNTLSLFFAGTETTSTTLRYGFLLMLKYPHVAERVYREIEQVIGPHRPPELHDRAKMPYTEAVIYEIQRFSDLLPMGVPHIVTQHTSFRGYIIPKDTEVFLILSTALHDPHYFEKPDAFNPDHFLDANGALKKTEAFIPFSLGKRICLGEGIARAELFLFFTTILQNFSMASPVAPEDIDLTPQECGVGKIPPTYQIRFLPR
The data set is described as follows: Time dependent inhibition of CYP2B6 in human liver microsomes at 40 uM measured after 5 to 20 mins in presence of NADPH by LC/MS/MS analysis. The format is ADME, Microsome.

The target in data set [20] is T3, Cytochrome P450 2C8 (Homo sapiens, UniProt P10632).
T3 sequence (P10632 whole entry): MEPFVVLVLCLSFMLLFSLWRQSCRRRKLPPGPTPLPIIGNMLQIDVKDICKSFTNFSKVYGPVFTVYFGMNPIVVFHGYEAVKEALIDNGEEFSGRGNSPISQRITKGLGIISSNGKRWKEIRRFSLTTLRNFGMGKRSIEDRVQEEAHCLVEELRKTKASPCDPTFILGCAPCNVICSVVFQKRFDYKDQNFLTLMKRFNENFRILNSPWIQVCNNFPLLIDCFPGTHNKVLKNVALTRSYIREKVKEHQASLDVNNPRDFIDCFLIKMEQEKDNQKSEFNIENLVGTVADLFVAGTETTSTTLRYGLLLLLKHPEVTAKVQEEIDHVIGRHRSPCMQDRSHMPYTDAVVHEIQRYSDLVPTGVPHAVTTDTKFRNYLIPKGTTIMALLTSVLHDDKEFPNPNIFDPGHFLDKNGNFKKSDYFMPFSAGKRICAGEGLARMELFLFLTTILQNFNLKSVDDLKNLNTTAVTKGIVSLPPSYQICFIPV
The data set is described as follows: Time dependent inhibition of CYP2C8 in human liver microsomes at 40 uM measured after 5 to 20 mins in presence of NADPH by LC/MS/MS analysis. The format is ADME, Microsome.

For data set [21], the target named is Cytochrome P450 2C9 (Homo sapiens, UniProt P11712). The data set is described as follows: Time dependent inhibition of CYP2C9 in human liver microsomes at 40 uM using diclofenac as substrate measured after 5 to 20 mins in presence of NADPH by LC/MS/MS analysis. The format is ADME, Microsome.
Cytochrome P450 2C9, sequence (P11712 whole entry): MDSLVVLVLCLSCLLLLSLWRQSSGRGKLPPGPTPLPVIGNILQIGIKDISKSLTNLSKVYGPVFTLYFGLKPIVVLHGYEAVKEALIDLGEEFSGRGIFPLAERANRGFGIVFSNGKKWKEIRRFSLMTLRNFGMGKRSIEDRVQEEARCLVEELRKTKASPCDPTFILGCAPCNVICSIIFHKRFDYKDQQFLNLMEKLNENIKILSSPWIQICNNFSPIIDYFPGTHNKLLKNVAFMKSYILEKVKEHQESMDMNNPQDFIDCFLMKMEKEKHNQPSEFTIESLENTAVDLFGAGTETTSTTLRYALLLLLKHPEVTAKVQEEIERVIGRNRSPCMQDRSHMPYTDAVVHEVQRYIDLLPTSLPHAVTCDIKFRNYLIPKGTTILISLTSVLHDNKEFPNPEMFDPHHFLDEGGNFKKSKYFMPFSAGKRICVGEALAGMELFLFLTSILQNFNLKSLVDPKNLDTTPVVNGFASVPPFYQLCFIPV
In data set [22] the target is Cytochrome P450 2C19 (Homo sapiens, UniProt P33261). The data set is described as follows: Time dependent inhibition of CYP2C19 in human liver microsomes at 40 uM using (S)-mephenytoin as substrate measured after 5 to 20 mins in presence of NADPH by LC/MS/MS analysis. Type of data set: ADME, Microsome.
Cytochrome P450 2C19, sequence (P33261 whole entry): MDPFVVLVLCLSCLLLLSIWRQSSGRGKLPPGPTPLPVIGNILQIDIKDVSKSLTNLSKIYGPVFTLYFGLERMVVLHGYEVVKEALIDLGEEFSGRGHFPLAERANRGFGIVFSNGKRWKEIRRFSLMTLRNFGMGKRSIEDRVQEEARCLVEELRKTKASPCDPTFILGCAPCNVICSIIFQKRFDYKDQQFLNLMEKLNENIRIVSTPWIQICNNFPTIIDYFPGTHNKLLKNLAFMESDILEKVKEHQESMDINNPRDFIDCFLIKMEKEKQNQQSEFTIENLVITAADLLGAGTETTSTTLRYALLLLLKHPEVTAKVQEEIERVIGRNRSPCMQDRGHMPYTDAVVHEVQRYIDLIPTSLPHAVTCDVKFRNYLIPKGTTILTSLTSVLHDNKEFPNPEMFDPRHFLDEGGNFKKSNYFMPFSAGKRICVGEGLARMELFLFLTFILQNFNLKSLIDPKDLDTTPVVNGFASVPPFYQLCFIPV
In data set [23] the target is Cytochrome P450 2D6 (Homo sapiens, UniProt P10635). The data set is described as follows: Time dependent inhibition of CYP2D6 in human liver microsomes at 40 uM using dextromethorphan as substrate measured after 5 to 20 mins in presence of NADPH by LC/MS/MS analysis. The format is ADME, Microsome.
Cytochrome P450 2D6, sequence (P10635 whole entry): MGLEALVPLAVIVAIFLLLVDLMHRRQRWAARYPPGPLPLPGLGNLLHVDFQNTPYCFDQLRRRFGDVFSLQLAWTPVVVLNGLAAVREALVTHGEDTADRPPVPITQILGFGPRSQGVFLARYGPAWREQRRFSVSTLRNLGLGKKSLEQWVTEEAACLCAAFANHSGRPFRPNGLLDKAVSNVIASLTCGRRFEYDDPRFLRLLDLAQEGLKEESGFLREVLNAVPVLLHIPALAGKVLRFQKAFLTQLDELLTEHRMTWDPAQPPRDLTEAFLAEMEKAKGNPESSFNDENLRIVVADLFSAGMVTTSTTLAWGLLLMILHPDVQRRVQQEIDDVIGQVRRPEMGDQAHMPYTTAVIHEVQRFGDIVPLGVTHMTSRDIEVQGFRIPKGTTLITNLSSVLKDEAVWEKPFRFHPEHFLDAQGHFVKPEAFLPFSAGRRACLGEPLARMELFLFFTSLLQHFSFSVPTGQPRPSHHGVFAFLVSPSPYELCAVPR
The target of data set [24] is Cytochrome P450 3A4 (Homo sapiens, UniProt P08684). The data set is described as follows: Time dependent inhibition of CYP3A4 in human liver microsomes at 40 uM using midazolam as substrate measured after 5 to 20 mins in presence of NADPH by LC/MS/MS analysis. The format is ADME, Microsome.
Cytochrome P450 3A4, sequence (P08684 whole entry): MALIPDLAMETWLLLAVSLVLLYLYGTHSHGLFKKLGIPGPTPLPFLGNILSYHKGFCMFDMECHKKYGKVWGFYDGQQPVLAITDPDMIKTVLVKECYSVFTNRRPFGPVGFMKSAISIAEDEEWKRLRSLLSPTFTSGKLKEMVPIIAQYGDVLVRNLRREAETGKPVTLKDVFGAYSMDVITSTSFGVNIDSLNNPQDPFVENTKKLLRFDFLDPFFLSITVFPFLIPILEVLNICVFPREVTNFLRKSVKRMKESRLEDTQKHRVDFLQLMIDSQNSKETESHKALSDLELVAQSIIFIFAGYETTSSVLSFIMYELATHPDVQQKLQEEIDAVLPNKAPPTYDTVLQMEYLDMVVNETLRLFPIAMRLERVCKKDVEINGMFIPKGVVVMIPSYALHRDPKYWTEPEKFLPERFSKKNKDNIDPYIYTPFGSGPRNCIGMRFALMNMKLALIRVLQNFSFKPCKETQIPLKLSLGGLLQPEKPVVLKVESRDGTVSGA
For data set [25], the target named is Voltage-gated inwardly rectifying potassium channel KCNH2 (Homo sapiens, UniProt Q12809). The data set is described as follows: Inhibition of human ERG by patch clamp assay. Type of data set: toxicity.
Data set [26] is described as follows: Apparent permeability of the compound across apical to basolateral side in human Caco-2 cells. Type of data set: toxicity, cell-based. To be noted: in vivo, 100 mg/kg, 168 h, time 7 day.

Usually MRT inf stands for a mean duration of stay, worked out from the concentration-time curve. Broadly, the pIC50 is the IC50 on a negative log10 scale, so that one unit is a factor of ten. One may read the clearance as the rate of elimination divided by the concentration. As a reminder, the Vdss is a proportionality between amount in the body and measured concentration, not a real space. In general, half-life refers to the time needed for the level to fall by half in the phase considered. On to `C[C@@H](C1CC1)N1Cc2cc(-c3ccn4nc(N)c(C(=O)N[C@H]5CC[C@@](C)(O)CC5)c4n3)cc(OC(F)(F)F)c2C1=O`, for which the MRT inf is 2.03 h in data set [1] and 2.33 h in [14]. In addition, the pIC50 in [2] was 8.55; in data set [3] it was 6.62; in data set [4], 5.58. Also, the fraction unbound in [5] was 0.05. The clearance was 17.2 mL/min/kg in data set [6], 14 mL/min/kg in data set [7] and 17.7 mL/min/kg in [8]. The Vdss in data set [9] came out at 2.09 L/kg; in data set [10], 3.24 L/kg. Moreover, the half-life in data set [11] was 236 min; in data set [12], 130 min; in [13], 210 min. In addition, the inhibition entry in data set [15] and in data set [16] was “Active” throughout. Besides, in data set [17], the remaining at 4 h, 0.5 µM was > 95%.

One may read the pKi as −log10 of the Ki, conventionally taken in molar units. For `C[C@@H](C1CC1)N1Cc2cc(-c3ccn4nc(N)c(C(=O)N[C@H]5CC[C@@](C)(O)CC5)c4n3)cc(OC(F)F)c2C1=O`, the MRT inf stood at 1.87 h in data set [1] and 1.86 h in data set [14]. For the same compound, the pKi in data set [18] was 9.15. For the same compound, the pIC50 was 8.72 in data set [2]; 6.52 in [3]; 5.90 in [4]; < 4.70 in data set [19]; < 4.70 in data set [20]; < 4.70 in [21]. Besides, the pIC50 in data set [22] was < 4.70; in data set [23], < 4.70; in data set [24], < 4.70; in data set [25], < 5.00. Also, in [5], the fraction unbound is 0.034. Besides, the clearance is 14.7 mL/min/kg in data set [6], 9.67 mL/min/kg in data set [7] and 18 mL/min/kg in [8]. Also, the results for the Vdss in [9] and in data set [10] were 1.66 L/kg and 3.55 L/kg, respectively. Besides, the half-life in [11] is 299 min; in data set [12], 113 min; in data set [13] it was 291 min. For the same compound, the inhibition entry in data set [15] and in data set [16] was “Active” each time. The remaining at 4 h, 0.5 µM in data set [17] is > 95%. In addition, the Activity entry in data set [26] is on record as “Non-Toxic”.
